Experimental data from patent US20260159521A1, “RET-LDD PROTEIN INHIBITORS” (Bristol-Myers Squibb Company, priority 2022, published 2026).

Biological target: RET kinase (Homo sapiens, UniProt P07949)
Assay: time resolved FRET-based competition binding assay (RET HTRF)
Description: Cellular RET Binding Assay A time resolved FRET-based competition binding assay was used to assess compound binding to RET kinase (Thermo Fisher, PR7355A). […] Two (2) L of the reaction solution was dispensed into wells of a 1536 plate (Black Low Binding Polystyrene 1536 Plate, Corning, 3724) containing 10 nL of compounds of interest serially diluted in DMSO. The plate was incubated at room temperature for 1 h. FRET was measured using an EnVision plate reader (Excitation: 340 nm, Emission: 520 nm/495 nM). Total signal (0% inhibition) was calculated from wells containing 10 nL DMSO only.

Sequence of RET kinase (P07949 29-1114): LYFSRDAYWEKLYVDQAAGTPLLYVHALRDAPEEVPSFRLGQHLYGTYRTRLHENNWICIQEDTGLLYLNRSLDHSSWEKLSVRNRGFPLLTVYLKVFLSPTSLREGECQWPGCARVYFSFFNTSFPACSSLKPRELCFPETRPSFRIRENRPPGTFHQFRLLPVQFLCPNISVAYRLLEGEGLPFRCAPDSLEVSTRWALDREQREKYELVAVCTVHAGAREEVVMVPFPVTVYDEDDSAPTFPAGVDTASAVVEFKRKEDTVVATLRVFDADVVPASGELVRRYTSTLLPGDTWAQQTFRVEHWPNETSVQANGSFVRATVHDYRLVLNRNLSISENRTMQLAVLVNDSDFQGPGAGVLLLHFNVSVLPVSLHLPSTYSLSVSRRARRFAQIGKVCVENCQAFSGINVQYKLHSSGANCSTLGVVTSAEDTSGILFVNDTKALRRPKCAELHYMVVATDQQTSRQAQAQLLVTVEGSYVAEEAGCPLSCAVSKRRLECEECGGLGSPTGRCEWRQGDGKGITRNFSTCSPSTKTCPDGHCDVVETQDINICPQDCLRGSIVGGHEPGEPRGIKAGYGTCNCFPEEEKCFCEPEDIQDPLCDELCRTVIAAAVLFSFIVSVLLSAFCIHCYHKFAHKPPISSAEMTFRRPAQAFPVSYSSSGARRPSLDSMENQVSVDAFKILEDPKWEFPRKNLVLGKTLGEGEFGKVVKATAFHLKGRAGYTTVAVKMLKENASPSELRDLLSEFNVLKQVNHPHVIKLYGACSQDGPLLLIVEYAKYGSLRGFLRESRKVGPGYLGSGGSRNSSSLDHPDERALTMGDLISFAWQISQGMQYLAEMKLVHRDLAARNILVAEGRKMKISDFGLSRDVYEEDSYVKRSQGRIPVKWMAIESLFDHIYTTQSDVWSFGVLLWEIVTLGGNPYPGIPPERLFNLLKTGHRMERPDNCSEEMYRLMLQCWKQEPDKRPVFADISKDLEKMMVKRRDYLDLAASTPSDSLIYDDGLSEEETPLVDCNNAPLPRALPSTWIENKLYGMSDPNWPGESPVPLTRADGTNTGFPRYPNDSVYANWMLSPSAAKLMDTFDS

COCc1ccc(NC(=O)c2c(-c3ccc(C=O)cc3)c(C(C)C)n3ncnc(N)c23)cc1 [Example 10, 4-amino-6-(4-formylphenyl)-7-isopropyl-N-(4-(methoxymethyl)phenyl)pyrrolo[2,1-f][1,2,4]triazine-5-carboxamide]
IC50: 0.037 µM
